Key:
WT-HT1080 cells = test: fluorescence microscopy of cellular binding and uptake; format: cell-based, human; details: 1 µM, 37 °C, up to 4 h
Description: WT/hFAP-HT1080 cells were seeded in an 18-chamber slide with 10,000 cells/well and cultured overnight. The medium was discarded and replaced by medium containing 1 µM of NODAGA-FAP647. The cells were then further incubated at 37 °C and 5% CO2. The binding of the ligand was stopped at the indicated time points by discarding the media and washing the cells twice with ice-cold PBS. The cells were then quickly fixed with 4% PFA/2.5% saccharose in PBS at 20 °C for 20 min. Following the fixation, cells were incubated with a 1:200 dilution of WGA-CF488A (Biotium #29022–1) in PBS to stain the cell membranes. Finally, the cell nuclei were stained with Hoechst33258 (Sigma #94403) diluted 5 µg/ml in PBS for 30 min at 20 °C. Cells were visualized with the Fluoview 1000 confocal laser scanning microscope (Olympus) using a 100 × oil immersion objective. Three representative images were captured for each well.

[1] = biological target: T1, hFAPα, recombinant protein (Homo sapiens, UniProt Q12884); test: fluorometric enzyme inhibition assay for FAP; format: biochemical; details: Morrison equation for tight binding inhibitors; substrate Ala-Pro-AMC; mean ± SD
T1 construct: purchased
T1 sequence (Q12884 1-760): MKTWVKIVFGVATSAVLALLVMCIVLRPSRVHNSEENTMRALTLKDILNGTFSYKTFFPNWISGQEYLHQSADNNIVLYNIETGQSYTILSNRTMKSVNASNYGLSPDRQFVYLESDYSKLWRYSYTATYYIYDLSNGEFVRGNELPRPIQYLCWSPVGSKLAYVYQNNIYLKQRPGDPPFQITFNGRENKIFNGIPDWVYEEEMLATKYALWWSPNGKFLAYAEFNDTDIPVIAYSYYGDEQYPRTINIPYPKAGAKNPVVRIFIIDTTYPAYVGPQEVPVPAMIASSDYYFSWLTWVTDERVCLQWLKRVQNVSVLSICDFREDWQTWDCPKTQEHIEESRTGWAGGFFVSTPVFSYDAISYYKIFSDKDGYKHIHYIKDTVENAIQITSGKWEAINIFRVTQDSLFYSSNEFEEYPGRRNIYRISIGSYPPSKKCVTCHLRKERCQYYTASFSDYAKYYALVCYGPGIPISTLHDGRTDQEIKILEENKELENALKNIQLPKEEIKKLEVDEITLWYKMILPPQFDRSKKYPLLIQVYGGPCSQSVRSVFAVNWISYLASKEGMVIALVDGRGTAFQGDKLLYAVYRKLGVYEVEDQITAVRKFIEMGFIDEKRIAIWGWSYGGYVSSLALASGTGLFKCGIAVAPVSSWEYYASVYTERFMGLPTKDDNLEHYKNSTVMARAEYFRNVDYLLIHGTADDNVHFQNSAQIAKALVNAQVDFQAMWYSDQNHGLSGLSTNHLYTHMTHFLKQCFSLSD
Description: Affinity towards FAP was tested using a commercially available fluorometric assay. At the day of the experiment, all tested compounds were diluted in assay buffer (DPP assay buffer, BPS Bioscience, San Diego, CA, USA,) in a 1:1 dilution series, resulting in eleven concentrations, ranging from 2000 nM to 1.950 nM, equal to 200 nM to 0.195 nM per well. The substrate Ala-Pro-AMC (BPS Bioscience, concentration per well: 5 μM, Km = 244 μM (Edosada et al. [2006])) was pipetted along with the inhibitor into a 96-well plate. Subsequently, the enzyme (hFAPα, recombinant protein) was dissolved in assay buffer and added to the wells. The final concentration of DMSO per well was 0.2%. The 96-well plate was immediately loaded into a multimode plate reader (Biotek Cytation 5, Agilent, Santa Clara, CA, USA). The fluorescence intensity for each well was measured over a time course of 30 min with measurement intervals of 15 s, an excitation wavelength of 360 ± 20 nm and an emission wavelength of 450 ± 20 nm. Data (relative fluorescence units, RFU) over the total measurement time was analyzed by linear regression. The slope of the resulting graphs was analyzed over the inhibitor concentration. The enzyme inhibition constant Ki was calculated using the Morrison equation for tight binding inhibitors (Williams and Morrison [1979]). […]

[2] = biological target: T2, human recombinant dipeptidylpeptidase IV (Homo sapiens, UniProt P27487); test: fluorometric enzyme inhibition assay for DPPIV; format: biochemical
T2 construct: purchased Cayman Chemical
T2 sequence (P27487 whole entry): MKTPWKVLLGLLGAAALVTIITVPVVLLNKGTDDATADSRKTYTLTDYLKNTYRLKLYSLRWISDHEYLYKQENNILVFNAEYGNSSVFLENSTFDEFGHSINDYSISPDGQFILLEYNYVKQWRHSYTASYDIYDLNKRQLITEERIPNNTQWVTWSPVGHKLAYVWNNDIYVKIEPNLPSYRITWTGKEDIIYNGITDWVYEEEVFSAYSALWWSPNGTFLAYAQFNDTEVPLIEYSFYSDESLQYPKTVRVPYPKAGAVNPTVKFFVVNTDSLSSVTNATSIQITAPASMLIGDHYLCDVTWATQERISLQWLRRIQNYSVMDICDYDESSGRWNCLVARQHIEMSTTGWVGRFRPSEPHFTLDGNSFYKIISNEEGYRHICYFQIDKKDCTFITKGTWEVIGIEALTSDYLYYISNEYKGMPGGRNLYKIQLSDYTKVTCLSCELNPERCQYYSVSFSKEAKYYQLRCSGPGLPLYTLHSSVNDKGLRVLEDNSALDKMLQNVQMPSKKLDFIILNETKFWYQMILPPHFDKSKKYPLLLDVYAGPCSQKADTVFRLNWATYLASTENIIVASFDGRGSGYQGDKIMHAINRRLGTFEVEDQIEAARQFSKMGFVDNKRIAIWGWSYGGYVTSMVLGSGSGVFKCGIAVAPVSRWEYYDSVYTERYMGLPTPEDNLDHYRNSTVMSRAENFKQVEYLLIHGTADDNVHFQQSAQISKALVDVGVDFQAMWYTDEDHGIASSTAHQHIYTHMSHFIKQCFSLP
Description: The affinity towards DPPIV was determined using a commercially available inhibitor screening assay kit (Cayman Chemical, USA). The assay was performed according to the manufacturer’s instructions, and the data was analyzed as described above.

[3] = tested on: hFAP-HT1080 and WT-HT1080 xenografts; test: in vivo fluorescence imaging of xenograft-bearing mice; parameters: species or system nude mice
Text: Female athymic NMRI-nude mice (Rj:NMRI-Foxn1nu, Janvier Labs, France or Charles River, Germany) between 8 and 20 weeks of age were used. Subsequently, the prepared cells (1.0–2.0 × 10^6 hFAP/WT-HT1080 per animal) were subcutaneously injected into the right and left thigh, respectively. Xenograft tissue for real-time binding experiments was derived from animals injected with both target-positive and negative cells, however only showing growth of one tumor entity. When approaching endpoints, mice were anesthetized and euthanized. The tumor was quickly removed, frozen in − 45 °C 2-methylbutane and stored in sealed tubes at − 80 °C.
Optical imaging was performed using a multimodal IVIS-CT (Perkin Elmer, USA). Compounds were injected [0.09 mg/kg (n = 1)/0.33 mg/kg (n = 3) for NODAGA-FAP647; 0.17 mg/kg (n = 3) for NODAGA-FAP800, diluted in 150 µL of sterile 0.9% NaCl solution] into the lateral tail vein, either directly or via catheter. Fluorescence imaging started ~ 2 min post injection for 2–3 h, with 1 min, 3–5 min and 10 min intervals, along with a white-light image. Additional scans were performed after 24 h and, if applicable, later. The fluorescence of the respective fluorophore was captured (NODAGA-FAP647: λEx/Em = 640/680 nm, NODAGA-FAP800: λEx/Em = 745/800 nm). Emitted fluorescence intensity was analyzed (Perkin Elmer, Living Image 4.7.4) in raw data images.

## CN(CCCN1CCN(C(=O)[C@H](CCCCNC(=O)CC[C@H](C(=O)O)N2CCN(CC(=O)O)CCN(CC(=O)O)CC2)NC(=O)CCOCCOCCOCCOCCNC(=O)CCCCCC2(C)C(/C=C/C=C/C=C3/N(CCCS(=O)(=O)O)c4ccc(S(=O)(=O)O)cc4C3(C)C)=[N+](CCCS(=O)(=O)O)c3ccc(S(=O)(=O)[O-])cc32)CC1)c1ccc2nccc(C(=O)NCC(=O)N3CC(F)(F)C[C@H]3C#N)c2c1 (stereo partly drawn) [NODAGA-FAP647]
WT-HT1080 cells
  binding or uptake in WT-HT1080 cells: did not show any binding or uptake
[1]
  Ki: 0.237 ± 0.064 nM
[2]
  IC50: > 10000 nM
[3]; 120 min post injection
  ratio hFAP-HT1080/muscle fluorescence: 3.5
  ratio hFAP/WT-HT1080 tumor fluorescence: 2.5
[3]; 24 h post injection
  fluorescence in hFAP-HT1080 tumor higher than in WT-HT1080 tumor or muscle: roughly 60%
[3]; after 24 h post injection
  reduction of fluorescence signal in hFAP-HT1080 tumor: 59%
[3]; over the imaging period
  WT-HT1080 to muscle ratio: close to one
[3]; post injection
  time to plateau of fluorescence in hFAP-HT1080 tumor: ~ 10 min

Reference: PMC12686243, “Synthesis and preclinical evaluation of FAP-targeting radiotracers for PET and optical imaging” (EJNMMI Radiopharmacy and Chemistry, 2025)
